Reference: patent US10035800B2 (AbbVie Inc., priority 2013, dated 2018)

How the values were obtained:
BRD4 (BDI_K57-E168) = biological target: T1, BRD4 (BDI_K57-E168) (Homo sapiens, UniProt O60885); experiment: TR-FRET bromodomain binding assay, first bromodomain of BRD4; settings: 100 nM probe
T1 construct: BD1: amino acids K57-E168; made in house
Summary of the method: (§1)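 Ki values derive from IC50s using probe Kd and concentration, with IC50s fitted to normalized TR-FRET ratios (Ex 340/Em 495, 520). Compounds competed against an Alexa647-labelled BET-inhibitor (100 nM BDI, 30 nM BDII) for 8 nM His-tagged bromodomain bound by Eu-anti-His antibody, 1 h, room temperature, pH 6.0.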

[1] = system: breast cancer cell line MX-1; experiment: MX-1 cell line proliferation assay; type: cell-based; settings: MX-1 cells, 3-day proliferation assay, Cell Titer Glo; read-out: Cellular proliferation: EC50
Experimental: MX-1 Cell Line Proliferation Assay
The impact of compounds of the Examples on cancer cell proliferation was determined using the breast cancer cell line MX-1 (ATCC) in a 3-day proliferation assay and the data are reported in Table 1. MX-1 cells were maintained in RPMI 1640 medium (Sigma) supplemented with 10% FBS at 37 C.° and an atmosphere of 5% CO2. For compound testing, MX-1 cells were plated in 96-well black bottom plates at a density of 5000 cells/well in 90 μL of culture media and incubated at 37° overnight to allow cell adhesion and spreading. Compound dilution series were prepared in DMSO via a 3-fold serial dilution from 3 mM to 0.1 μM. The DMSO dilution series were then diluted 1:100 in phosphate buffered saline, and 10 μL of the resulted solution were added to the appropriate wells of the MX-1 cell plate. The final compound concentrations in the wells were 3, 1, 0.3, 0.1, 0.03, 0.01, 0.003, 0.001, 0.0003, and 0.0001 μM or 1, 0.3, 0.1, 0.03, 0.01, 0.003, 0.001, 0.0003, 0.0001, and 0.00003 μM.
Luminescence readings from the Cell Titer Glo assay were normalized to the DMSO treated cells and analyzed using the GraphPad Prism software with sigmoidal curve fitting to obtain EC50s. The minimum significant ratio (MSR) was determined to evaluate assay reproducibility (Eastwood et al., (2006) J Biomol Screen, 11: 253-261). The overall MSR was determined to be 2.1 and a moving MSR (last six run MSR overtime) has been <2.

BRD4 (BDII_E352-M457) = biological target: T2, BRD4 (BDII_E352-M457) (Homo sapiens, UniProt O60885); experiment: TR-FRET bromodomain binding assay, second bromodomain of BRD4; settings: 30 nM probe
T2 construct: protocol; made in house
Summary of the method: as §1

[2] = TR-FRET assay protocol G (compound 0.92 μM-15 pM)
[3] = TR-FRET assay protocol E (compound 9.19 μM-150 pM)

Ki (BRD4 (BDI_K57-E168); [2]) [nM]	EC50 [1] [nM]	Ki (BRD4 (BDII_E352-M457); [2]) [nM]	Ki (BRD4 (BDI_K57-E168); [3]) [nM]	Ki (BRD4 (BDII_E352-M457); [3]) [nM]	Structure (SMILES)
2.84	2.59	1.63	–	–	Cn1cc2c3c(c[nH]c3c1=O)CN(C(=O)Oc1ccccc1)c1ccc(CS(C)(=O)=O)cc1-2 [Example 93, phenyl 10-methyl-7-((methylsulfonyl)methyl)-11-oxo-10,11-dihydro-1H-1,4,10-triazadibenzo[cd,f]azulene-4(3H)-carboxylate]
11.4	510	2.14	–	–	Cn1cc2c3c(c[nH]c3c1=O)C(CNC(=O)CNC(=O)OC(C)(C)C)N(c1ccc(F)cc1F)c1ccc(CS(C)(=O)=O)cc1-2 (stereo not drawn) [Example 135, tert-butyl (2-(((4-(2,4-difluorophenyl)-10-methyl-7-((methylsulfonyl)methyl)-11-oxo-3,4,10,11-tetrahydro-1H-1,4,10-triazadibenzo[cd,f]azulen-3-yl)methyl)amino)-2-oxoethyl)carbamate]
0.7	1.3	1.18	–	–	Cn1cc2c3c(c[nH]c3c1=O)CN(c1ccc(C(F)(F)F)cn1)c1ccc(CS(C)(=O)=O)cc1-2 [Example 253, 10-methyl-7-((methylsulfonyl)methyl)-4-(5-(trifluoromethyl)pyridin-2-yl)-3,4-dihydro-1H-1,4,10-triazadibenzo[cd,f]azulen-11(10H)-one]
54.9	175	3.06	–	–	Cn1cc2c3c(c[nH]c3c1=O)C(CCCOc1ccccc1)N(c1ccc(F)cc1F)c1ccc(CS(C)(=O)=O)cc1-2 (stereo not drawn) [Example 143, 4-(2,4-difluorophenyl)-10-methyl-7-((methylsulfonyl)methyl)-3-(3-phenoxypropyl)-3,4-dihydro-1H-1,4,10-triazadibenzo[cd,f]azulen-11(10H)-one]
> 238	318	18.8	–	–	Cn1cc2c3c(c[nH]c3c1=O)C(CCCOc1ccccc1)N(c1ccc(F)cc1F)c1ccc(CS(C)(=O)=O)cc1-2 (single isomer, unassigned) [Example 144]
62.1	275	4.6	–	–	Cn1cc2c3c(c[nH]c3c1=O)C(Cn1ccccc1=O)N(c1ccc(F)cc1F)c1ccc(CS(C)(=O)=O)cc1-2 (stereo not drawn) [Example 238, 4-(2,4-difluorophenyl)-10-methyl-7-((methylsulfonyl)methyl)-3-((2-oxopyridin-1(2H)-yl)methyl)-3,4-dihydro-1H-1,4,10-triazadibenzo[cd,f]azulen-11(10H)-one]
7.23	910	4.73	–	–	COc1ccc(NC(=O)N2Cc3c[nH]c4c(=O)n(C)cc(c34)-c3cc(CS(C)(=O)=O)ccc32)cc1 [Example 62, N-(4-methoxyphenyl)-10-methyl-7-((methylsulfonyl)methyl)-11-oxo-10,11-dihydro-1H-1,4,10-triazadibenzo[cd,f]azulene-4(3H)-carboxamide]
6.65	> 1000	0.799	–	–	Cn1cc2c3c(c[nH]c3c1=O)C(CCC(=O)NC1CCOCC1)N(c1ccc(F)cc1F)c1ccc(CS(C)(=O)=O)cc1-2 (stereo not drawn) [Example 121, 3-(4-(2,4-difluorophenyl)-10-methyl-7-((methylsulfonyl)methyl)-11-oxo-3,4,10,11-tetrahydro-1H-1,4,10-triazadibenzo[cd,f]azulen-3-yl)-N-(tetrahydro-2H-pyran-4-yl)propanamide]
1.99	8.63	2.21	–	–	Cn1cc2c3c(c[nH]c3c1=O)CN(CC1CC1)c1c(F)cc(F)cc1-2 [Example 49, 4-(cyclopropylmethyl)-5,7-difluoro-10-methyl-3,4-dihydro-1H-1,4,10-triazadibenzo[cd,f]azulen-11(10H)-one]
1.12	4.41	0.855	–	–	CCCN1Cc2c[nH]c3c(=O)n(C)cc(c23)-c2cc(F)cc(F)c21 [Example 48, 5,7-difluoro-10-methyl-4-propyl-3,4-dihydro-1H-1,4,10-triazadibenzo[cd,f]azulen-11(10H)-one]
4.43	174	13.2	–	–	Cn1cc2c3c(c[nH]c3c1=O)CN(CCCc1ccccc1)c1c(F)cc(F)cc1-2 [Example 51, 5,7-difluoro-10-methyl-4-(3-phenylpropyl)-3,4-dihydro-1H-1,4,10-triazadibenzo[cd,f]azulen-11(10H)-one]
8.84	944	2.78	–	–	Cn1cc2c3c(c[nH]c3c1=O)C(CCC(=O)NC1CCS(=O)(=O)C1)N(c1ccc(F)cc1F)c1ccc(CS(C)(=O)=O)cc1-2 (stereo not drawn) [Example 124, 3-(4-(2,4-difluorophenyl)-10-methyl-7-((methylsulfonyl)methyl)-11-oxo-3,4,10,11-tetrahydro-1H-1,4,10-triazadibenzo[cd,f]azulen-3-yl)-N-(1,1-dioxidotetrahydrothiophen-3-yl)propanamide]
49.5	> 1000	57.8	–	–	CN1CCN(C(=O)C2c3c[nH]c4c(=O)n(C)cc(c34)-c3cc(CS(C)(=O)=O)ccc3N2c2ccc(F)cc2)CC1 (stereo not drawn) [Example 41, 4-(4-fluorophenyl)-10-methyl-3-(4-methylpiperazine-1-carbonyl)-7-((methylsulfonyl)methyl)-3,4-dihydro-1H-1,4,10-triazadibenzo[cd,f]azulen-11(10H)-one]
21.1	> 1000	3.74	–	–	Cc1cccc(C)c1NC(=O)N1Cc2c[nH]c3c(=O)n(C)cc(c23)-c2cc(CS(C)(=O)=O)ccc21 [Example 61, N-(2,6-dimethylphenyl)-10-methyl-7-((methylsulfonyl)methyl)-11-oxo-10,11-dihydro-1H-1,4,10-triazadibenzo[cd,f]azulene-4(3H)-carboxamide]
6.42	7.04	3.79	–	–	Cn1cc2c3c(c[nH]c3c1=O)CN(C(=O)CC(C)(C)C)c1ccc(CS(C)(=O)=O)cc1-2 [Example 107, 4-(3,3-dimethylbutanoyl)-10-methyl-7-((methylsulfonyl)methyl)-3,4-dihydro-1H-1,4,10-triazadibenzo[cd,f]azulen-11(10H)-one]
2.02	3.72	1.27	–	–	Cn1cc2c3c(c[nH]c3c1=O)CN(c1ccc(F)cc1)c1ccc(CC#N)cc1-2 [Example 177, 2-(4-(4-fluorophenyl)-10-methyl-11-oxo-3,4,10,11-tetrahydro-1H-1,4,10-triazadibenzo[cd,f]azulen-7-yl)acetonitrile]
–	8.7	–	1.74	0.847	Cn1cc2c3c(c[nH]c3c1=O)CN(CC1CCN(C(=O)OC(C)(C)C)C1)c1ccc(CS(C)(=O)=O)cc1-2 (racemic) [Example 25, tert-butyl 3-((10-methyl-7-((methylsulfonyl)methyl)-11-oxo-10,11-dihydro-1H-1,4,10-triazadibenzo[cd,f]azulen-4(3H)-yl)methyl)pyrrolidine-1-carboxylate]
14.4	197	35.3	–	–	Cn1cc2c3c(c[nH]c3c1=O)CN(CCc1ccc3c(c1)OCO3)c1c(F)cc(F)cc1-2 [Example 56, 4-(2-(benzo[d][1,3]dioxol-5-yl)ethyl)-5,7-difluoro-10-methyl-3,4-dihydro-1H-1,4,10-triazadibenzo[cd,f]azulen-11(10H)-one]
–	370	–	246	43.8	CC(C)CC1Nc2ccc(CS(C)(=O)=O)cc2-c2cn(C)c(=O)c3[nH]cc1c23 (racemic) [Example 19, 3-isobutyl-10-methyl-7-((methylsulfonyl)methyl)-3,4-dihydro-1H-1,4,10-triazadibenzo[cd,f]azulen-11(10H)-one]
8.61	51.8	0.6	–	–	Cn1cc2c3c(c[nH]c3c1=O)C(CCCO)N(c1ccc(F)cc1F)c1ccc(CS(C)(=O)=O)cc1-2 (stereo not drawn) [Example 142, 4-(2,4-difluorophenyl)-3-(3-hydroxypropyl)-10-methyl-7-((methylsulfonyl)methyl)-3,4-dihydro-1H-1,4,10-triazadibenzo[cd,f]azulen-11(10H)-one]
10.7	> 1000	2.35	–	–	Cn1cc2c3c(c[nH]c3c1=O)C(CCC(=O)N1CCNCC1)N(c1ccc(F)cc1F)c1ccc(CS(C)(=O)=O)cc1-2 (stereo not drawn) [Example 131, 4-(2,4-difluorophenyl)-10-methyl-7-((methylsulfonyl)methyl)-3-(3-oxo-3-(piperazin-1-yl)propyl)-3,4-dihydro-1H-1,4,10-triazadibenzo[cd,f]azulen-11(10H)-one]
